How the values were obtained:
Calcitonin receptor = target: T1, Calcitonin receptor (Homo sapiens, UniProt P30988); format: cell membranes, Membrane; details: t47d
T1 sequence (P30988 whole entry): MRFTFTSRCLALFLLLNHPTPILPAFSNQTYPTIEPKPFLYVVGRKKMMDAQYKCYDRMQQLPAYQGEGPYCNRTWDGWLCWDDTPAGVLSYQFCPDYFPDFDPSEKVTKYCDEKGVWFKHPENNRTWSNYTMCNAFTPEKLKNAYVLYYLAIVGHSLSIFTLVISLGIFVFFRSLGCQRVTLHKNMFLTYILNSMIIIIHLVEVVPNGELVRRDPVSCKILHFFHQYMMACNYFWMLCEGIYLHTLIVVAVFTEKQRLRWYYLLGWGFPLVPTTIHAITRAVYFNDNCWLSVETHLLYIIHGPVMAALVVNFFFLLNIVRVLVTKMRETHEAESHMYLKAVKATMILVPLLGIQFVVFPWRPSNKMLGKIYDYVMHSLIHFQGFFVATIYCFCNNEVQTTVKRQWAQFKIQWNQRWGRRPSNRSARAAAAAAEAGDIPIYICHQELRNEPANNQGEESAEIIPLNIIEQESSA

[1] = target: C-C chemokine receptor type 2 (Homo sapiens, UniProt P41597); format: cell membranes, Membrane; details: cho-k1
Histamine H2 receptor = Histamine H2 receptor (Homo sapiens, UniProt P25021); format: cell membranes, CHO-K1, Membrane
Leukotriene C4 synthase = target: T2, Leukotriene C4 synthase (Cavia porcellus, UniProt A6XA80); format: tissue-based, Lung;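 note: enzyme inhibition assay of leukotriene C4 synthase, using LTA4 as the substrate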
T2 sequence (A6XA80 whole entry): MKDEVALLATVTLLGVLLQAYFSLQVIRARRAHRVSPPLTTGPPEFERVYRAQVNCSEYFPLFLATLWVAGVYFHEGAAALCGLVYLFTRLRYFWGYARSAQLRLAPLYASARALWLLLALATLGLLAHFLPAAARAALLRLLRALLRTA

[2] = target: T3, Cysteinyl leukotriene receptor 1 (Homo sapiens, UniProt Q9Y271); format: cell membranes, Membrane; details: cho-k1
T3 sequence (Q9Y271 whole entry): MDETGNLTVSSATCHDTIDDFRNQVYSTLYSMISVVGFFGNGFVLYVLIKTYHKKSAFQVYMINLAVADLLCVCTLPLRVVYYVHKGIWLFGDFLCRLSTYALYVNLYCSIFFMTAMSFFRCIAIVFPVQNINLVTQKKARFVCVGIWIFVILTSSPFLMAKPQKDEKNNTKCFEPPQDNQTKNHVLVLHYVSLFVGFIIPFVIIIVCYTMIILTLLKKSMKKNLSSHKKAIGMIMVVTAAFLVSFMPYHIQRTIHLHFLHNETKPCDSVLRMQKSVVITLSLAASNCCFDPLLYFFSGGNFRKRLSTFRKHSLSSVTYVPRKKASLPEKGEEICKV

[3] = target: T4, Polyunsaturated fatty acid lipoxygenase ALOX15 (Oryctolagus cuniculus, UniProt P12530); test: biochemical; format: tissue-based, Reticulocytes; details: reticulocytes;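 note: inhibition of 15-lipoxygenase enzyme activity measured with linoleic acid as the substrate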
T4 sequence (P12530 whole entry): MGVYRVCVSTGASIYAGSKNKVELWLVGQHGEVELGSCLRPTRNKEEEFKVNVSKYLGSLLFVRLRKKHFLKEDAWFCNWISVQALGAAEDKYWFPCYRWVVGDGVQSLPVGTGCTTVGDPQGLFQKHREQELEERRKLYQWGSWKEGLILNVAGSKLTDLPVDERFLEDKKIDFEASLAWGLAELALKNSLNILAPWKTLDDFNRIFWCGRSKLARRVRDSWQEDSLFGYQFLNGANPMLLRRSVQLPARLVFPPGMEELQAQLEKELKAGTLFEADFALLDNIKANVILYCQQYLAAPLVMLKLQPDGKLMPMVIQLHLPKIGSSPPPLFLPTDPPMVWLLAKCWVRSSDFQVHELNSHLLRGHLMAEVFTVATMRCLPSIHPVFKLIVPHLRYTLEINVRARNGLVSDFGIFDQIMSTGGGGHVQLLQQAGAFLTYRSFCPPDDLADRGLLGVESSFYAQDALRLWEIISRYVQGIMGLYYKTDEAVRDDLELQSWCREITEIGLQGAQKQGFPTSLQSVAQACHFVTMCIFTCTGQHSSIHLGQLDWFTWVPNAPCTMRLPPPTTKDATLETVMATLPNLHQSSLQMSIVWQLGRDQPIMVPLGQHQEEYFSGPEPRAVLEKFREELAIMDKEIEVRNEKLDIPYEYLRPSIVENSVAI

[4] = target: T5, Neuropeptide Y receptor type 1 (Homo sapiens, UniProt P25929); format: cell membranes, Membrane; details: sk-n-mc
T5 sequence (P25929 whole entry): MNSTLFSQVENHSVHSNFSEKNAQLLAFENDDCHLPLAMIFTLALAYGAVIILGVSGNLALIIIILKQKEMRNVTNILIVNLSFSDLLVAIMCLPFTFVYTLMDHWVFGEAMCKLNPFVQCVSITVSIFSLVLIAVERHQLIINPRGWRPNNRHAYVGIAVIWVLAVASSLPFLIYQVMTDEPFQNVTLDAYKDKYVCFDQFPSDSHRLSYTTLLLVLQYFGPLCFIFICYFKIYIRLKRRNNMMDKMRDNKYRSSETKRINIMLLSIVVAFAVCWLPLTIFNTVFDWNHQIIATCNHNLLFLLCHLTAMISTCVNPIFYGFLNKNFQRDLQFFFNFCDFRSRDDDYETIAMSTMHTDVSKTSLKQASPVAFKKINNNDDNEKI

Interstitial collagenase = target: T6, Interstitial collagenase (Homo sapiens, UniProt P03956); test: biochemical; format: tissue-based, Rheumatoid synovial fibroblasts;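 note: MMP-1 enzyme inhibition assay using a peptide substrate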
T6 sequence (P03956 whole entry): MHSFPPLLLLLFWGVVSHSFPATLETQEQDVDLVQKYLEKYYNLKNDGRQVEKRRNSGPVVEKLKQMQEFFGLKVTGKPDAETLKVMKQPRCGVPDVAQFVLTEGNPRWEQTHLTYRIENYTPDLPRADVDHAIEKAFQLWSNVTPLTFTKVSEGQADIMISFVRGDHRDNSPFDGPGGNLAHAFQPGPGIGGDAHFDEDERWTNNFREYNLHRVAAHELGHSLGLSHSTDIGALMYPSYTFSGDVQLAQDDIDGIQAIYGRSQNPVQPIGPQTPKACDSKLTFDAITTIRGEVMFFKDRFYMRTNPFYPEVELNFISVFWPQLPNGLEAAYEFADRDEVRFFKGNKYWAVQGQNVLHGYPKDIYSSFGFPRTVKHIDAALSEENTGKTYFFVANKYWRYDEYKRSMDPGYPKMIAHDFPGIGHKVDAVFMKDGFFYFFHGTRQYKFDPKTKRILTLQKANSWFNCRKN

Cytochrome P450 3A4 = Cytochrome P450 3A4 (Homo sapiens, UniProt P08684); details: bti-tn-5b1-4
Note: in other assays of this panel Not Active means under 50% inhibition at 10 µM.

Chain of Histamine H2 receptor (P25021 whole entry): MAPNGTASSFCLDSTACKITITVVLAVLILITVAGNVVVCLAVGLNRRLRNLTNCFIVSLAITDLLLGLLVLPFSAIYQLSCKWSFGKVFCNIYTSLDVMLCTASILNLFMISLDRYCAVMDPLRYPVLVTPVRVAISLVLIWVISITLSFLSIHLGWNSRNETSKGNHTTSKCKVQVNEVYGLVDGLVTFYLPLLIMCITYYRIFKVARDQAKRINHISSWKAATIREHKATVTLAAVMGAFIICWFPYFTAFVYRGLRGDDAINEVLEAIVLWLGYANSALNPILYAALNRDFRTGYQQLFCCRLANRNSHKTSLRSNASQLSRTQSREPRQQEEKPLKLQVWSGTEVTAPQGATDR
Chain of Cytochrome P450 3A4 (P08684 whole entry): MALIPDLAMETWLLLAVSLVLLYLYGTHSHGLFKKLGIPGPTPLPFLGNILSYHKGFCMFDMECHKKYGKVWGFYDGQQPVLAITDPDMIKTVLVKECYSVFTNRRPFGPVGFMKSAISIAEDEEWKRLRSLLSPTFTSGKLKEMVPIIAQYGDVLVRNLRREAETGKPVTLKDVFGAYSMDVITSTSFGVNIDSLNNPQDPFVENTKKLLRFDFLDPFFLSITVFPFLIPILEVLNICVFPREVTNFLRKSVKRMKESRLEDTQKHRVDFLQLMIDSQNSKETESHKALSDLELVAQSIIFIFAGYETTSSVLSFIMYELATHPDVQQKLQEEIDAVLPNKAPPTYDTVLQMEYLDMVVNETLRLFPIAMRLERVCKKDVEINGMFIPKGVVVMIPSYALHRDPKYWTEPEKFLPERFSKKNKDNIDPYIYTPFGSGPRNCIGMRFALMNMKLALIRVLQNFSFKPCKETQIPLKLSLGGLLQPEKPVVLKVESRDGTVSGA
Chain of C-C chemokine receptor type 2 (P41597 whole entry): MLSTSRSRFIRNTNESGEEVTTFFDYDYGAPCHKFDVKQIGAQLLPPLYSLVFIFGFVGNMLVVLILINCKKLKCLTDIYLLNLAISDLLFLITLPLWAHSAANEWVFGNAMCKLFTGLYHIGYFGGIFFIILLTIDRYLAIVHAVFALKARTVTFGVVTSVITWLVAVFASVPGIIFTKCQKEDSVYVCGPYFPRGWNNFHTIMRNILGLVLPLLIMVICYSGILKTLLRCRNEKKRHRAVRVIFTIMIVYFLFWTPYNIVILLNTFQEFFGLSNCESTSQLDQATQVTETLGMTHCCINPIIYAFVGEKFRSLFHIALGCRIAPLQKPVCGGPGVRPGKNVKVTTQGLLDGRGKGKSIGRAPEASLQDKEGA

CC1CCC(NC(=O)N(CCCl)N=O)CC1 (configuration not stated) [SEMUSTINE]
Not Active: IC50 (Calcitonin receptor) | IC50 [1] | IC50 (Histamine H2 receptor; cho-k1) | IC50 (Leukotriene C4 synthase) | IC50 [2] | IC50 [3] | IC50 [4] | IC50 (Interstitial collagenase) | IC50 (Cytochrome P450 3A4) | Ki (Cytochrome P450 3A4)

O=C1C[C@@H]2OCC=C3CN4CC[C@]56c7ccccc7N1[C@H]5[C@H]2[C@H]3C[C@H]46 [STRYCHNINE]
Not Active: IC50 (Calcitonin receptor) | IC50 [1] | IC50 (Histamine H2 receptor; cho-k1) | IC50 (Leukotriene C4 synthase) | IC50 [2] | IC50 [3] | IC50 [4] | IC50 (Interstitial collagenase) | IC50 (Cytochrome P450 3A4) | Ki (Cytochrome P450 3A4)

C[N+](C)(C)CCOC(=O)CCC(=O)OCC[N+](C)(C)C.[Cl-].[Cl-] [SUCCINYLCHOLINE CHLORIDE]
Not Active: IC50 (Calcitonin receptor) | IC50 [1] | IC50 (Histamine H2 receptor; cho-k1) | IC50 (Leukotriene C4 synthase) | IC50 [2] | IC50 [3] | IC50 [4] | IC50 (Interstitial collagenase) | IC50 (Cytochrome P450 3A4) | Ki (Cytochrome P450 3A4)

Nc1ccc(S(=O)(=O)NC(=O)c2ccccc2)cc1 [SULFABENZAMIDE]
Not Active: IC50 (Calcitonin receptor) | IC50 [1] | IC50 (Histamine H2 receptor; cho-k1) | IC50 (Leukotriene C4 synthase) | IC50 [2] | IC50 [3] | IC50 [4] | IC50 (Interstitial collagenase) | IC50 (Cytochrome P450 3A4) | Ki (Cytochrome P450 3A4)

CCCCCCCCNC(C)C(O)c1ccc(SC(C)C)cc1 (configuration not stated) [SULOCTIDIL]
88.5 nM: Ki (Histamine H2 receptor; read-out: Ki)
108 nM: IC50 (Histamine H2 receptor; read-out: IC50)
Not Active: IC50 (Calcitonin receptor) | IC50 [1] | IC50 (Leukotriene C4 synthase) | IC50 [2] | IC50 [3] | IC50 [4] | IC50 (Interstitial collagenase) | IC50 (Cytochrome P450 3A4) | Ki (Cytochrome P450 3A4)

O=c1[nH]c(=O)n(C2CCCO2)cc1F (configuration not stated) [TEGAFUR]
Not Active: IC50 (Calcitonin receptor) | IC50 [1] | IC50 (Histamine H2 receptor; cho-k1) | IC50 (Leukotriene C4 synthase) | IC50 [2] | IC50 [3] | IC50 [4] | IC50 (Interstitial collagenase) | IC50 (Cytochrome P450 3A4) | Ki (Cytochrome P450 3A4)

CC(=N)S [THIOACETAMIDE]
Not Active: IC50 (Calcitonin receptor) | IC50 [1] | IC50 (Histamine H2 receptor; cho-k1) | IC50 (Leukotriene C4 synthase) | IC50 [2] | IC50 [3] | IC50 [4] | IC50 (Interstitial collagenase) | IC50 (Cytochrome P450 3A4) | Ki (Cytochrome P450 3A4)

Cc1ccc(C(=O)c2ccc(CC(=O)O)n2C)cc1 [TOLMETIN]
Not Active: IC50 (Calcitonin receptor) | IC50 [1] | IC50 (Histamine H2 receptor; cho-k1) | IC50 (Leukotriene C4 synthase) | IC50 [2] | IC50 [3] | IC50 [4] | IC50 (Interstitial collagenase) | IC50 (Cytochrome P450 3A4) | Ki (Cytochrome P450 3A4)

CC(=O)OCC(COC(C)=O)OC(C)=O [TRIACETIN]
Not Active: IC50 (Calcitonin receptor) | IC50 [1] | IC50 (Histamine H2 receptor; cho-k1) | IC50 (Leukotriene C4 synthase) | IC50 [2] | IC50 [3] | IC50 [4] | IC50 (Interstitial collagenase) | IC50 (Cytochrome P450 3A4) | Ki (Cytochrome P450 3A4)

TRANSPLATIN
Not Active: IC50 (Calcitonin receptor) | Ki (Calcitonin receptor) | IC50 [1] | Ki [1] | IC50 (Histamine H2 receptor; cho-k1) | Ki (Histamine H2 receptor; cho-k1) | IC50 (Leukotriene C4 synthase) | Ki (Leukotriene C4 synthase) | IC50 [2] | Ki [2] | IC50 [3] | Ki [3] | IC50 [4] | Ki [4] | IC50 (Interstitial collagenase) | Ki (Interstitial collagenase) | IC50 (Cytochrome P450 3A4) | Ki (Cytochrome P450 3A4)

ZIRCONIUM(IV) CHLORIDE
Not Active: IC50 (Calcitonin receptor) | Ki (Calcitonin receptor) | IC50 [1] | Ki [1] | IC50 (Histamine H2 receptor; cho-k1) | Ki (Histamine H2 receptor; cho-k1) | IC50 (Leukotriene C4 synthase) | Ki (Leukotriene C4 synthase) | IC50 [2] | Ki [2] | IC50 [3] | Ki [3] | IC50 [4] | Ki [4] | IC50 (Interstitial collagenase) | Ki (Interstitial collagenase) | IC50 (Cytochrome P450 3A4) | Ki (Cytochrome P450 3A4)

From ChEMBL document CHEMBL1909046, “DrugMatrix in vitro pharmacology data”
